Data taken from ChEMBL document CHEMBL3784933, “Synthesis and antitumor evaluation of trimethoxyanilides based on 4(3H)-quinazolinone scaffolds” (2016).

Key:
Format in all cases: functional
[1] = Cytotoxicity against human RXF393 cells assessed as growth inhibition at 10 uM after 48 hrs by SRB assay; conditions: RXF 393, 48 h, read-out: GI
[2] = tested on: Malme-3M; assay: Cytotoxicity against human MALME-3M cells assessed as growth inhibition at 10 uM after 48 hrs by SRB assay; conditions: read-out: GI
[3] = Cytotoxicity against human MOLT4 cells assessed as growth inhibition at 10 uM after 48 hrs by SRB assay; conditions: MOLT-4, 48 h, read-out: GI
[4] = tested on: CCRF-CEM; assay: Cytotoxicity against human CCRF-CEM cells assessed as growth inhibition at 10 uM after 48 hrs by SRB assay; conditions: read-out: GI
[5] = Cytotoxicity against human SNB75 cells assessed as growth inhibition at 10 uM after 48 hrs by SRB assay; conditions: SNB-75, 48 h, read-out: GI
[6] = tested on: U-251; assay: Cytotoxicity against human U251 cells assessed as growth inhibition at 10 uM after 48 hrs by SRB assay; conditions: U-251, 48 h, read-out: GI
[7] = Cytotoxicity against human Caki1 cells assessed as growth inhibition at 10 uM after 48 hrs by SRB assay; conditions: CAKI-1, 48 h, read-out: GI
[8] = Cytotoxicity against human OVCAR4 cells assessed as growth inhibition at 10 uM after 48 hrs by SRB assay; conditions: OVCAR-4, 48 h, read-out: GI
[9] = tested on: 786-0; assay: Cytotoxicity against human 786-0 cells assessed as growth inhibition at 10 uM after 48 hrs by SRB assay; conditions: 786-0, 48 h, read-out: GI
[10] = tested on: NCI-H522; assay: Cytotoxicity against human NCI-H522 cells assessed as growth inhibition at 10 uM after 48 hrs by SRB assay; conditions: NCI-H522, 48 h, read-out: GI
[11] = tested on: T47D; assay: Cytotoxicity against human T47D cells assessed as growth inhibition at 10 uM after 48 hrs by SRB assay; conditions: read-out: GI
[12] = Cytotoxicity against human LOXIMVI cells assessed as growth inhibition at 10 uM after 48 hrs by SRB assay; conditions: LOX IMVI, read-out: GI
[13] = tested on: MDA-MB-231; assay: Cytotoxicity against human MDA-MB-231 cells assessed as growth inhibition at 10 uM after 48 hrs by SRB assay; conditions: MDA-MB-231, 48 h, read-out: GI
[14] = Cytotoxicity against human Hs 578T cells assessed as growth inhibition at 10 uM after 48 hrs by SRB assay; conditions: read-out: GI
[15] = tested on: A498; assay: Cytotoxicity against human A498 cells assessed as growth inhibition at 10 uM after 48 hrs by SRB assay; conditions: A498, 48 h, read-out: GI
[16] = Cytotoxicity against human SF268 cells assessed as growth inhibition at 10 uM after 48 hrs by SRB assay; conditions: SF-268, 48 h, read-out: GI
[17] = Cytotoxicity against human BT549 cells assessed as growth inhibition at 10 uM after 48 hrs by SRB assay; conditions: BT-549, 48 h, read-out: GI
[18] = Cytotoxicity against human OVCAR8 cells assessed as growth inhibition at 10 uM after 48 hrs by SRB assay; conditions: OVCAR-8, 48 h, read-out: GI
[19] = Cytotoxicity against human HCT116 cells assessed as growth inhibition at 10 uM after 48 hrs by SRB assay; conditions: HCT-116, 48 h, read-out: GI
[20] = Cytotoxicity against human UACC62 cells assessed as growth inhibition at 10 uM after 48 hrs by SRB assay; conditions: UACC-62, 48 h, read-out: GI
[21] = Cytotoxicity against human RPMI8226 cells assessed as growth inhibition at 10 uM after 48 hrs by SRB assay; conditions: RPMI-8226, 48 h, read-out: GI
[22] = Cytotoxicity against human SNB19 cells assessed as growth inhibition at 10 uM after 48 hrs by SRB assay; conditions: SNB-19, 48 h, read-out: GI
[23] = tested on: SN12C; assay: Cytotoxicity against human SN12C cells assessed as growth inhibition at 10 uM after 48 hrs by SRB assay; conditions: read-out: GI
[24] = tested on: A549; assay: Cytotoxicity against human A549 cells assessed as growth inhibition at 10 uM after 48 hrs by SRB assay; conditions: A549, 48 h, read-out: GI
[25] = Cytotoxicity against human PC3 cells assessed as growth inhibition at 10 uM after 48 hrs by SRB assay; conditions: PC-3, 48 h, read-out: GI
[26] = Cytotoxicity against human UO31 cells assessed as growth inhibition at 10 uM after 48 hrs by SRB assay; conditions: UO-31, 48 h, read-out: GI
[27] = Cytotoxicity against human NCI-ADR-RES cells assessed as growth inhibition at 10 uM after 48 hrs by SRB assay; conditions: read-out: GI
[28] = tested on: NCI-H322M; assay: Cytotoxicity against human NCI-H322M cells assessed as growth inhibition at 10 uM after 48 hrs by SRB assay; conditions: read-out: GI
[29] = Cytotoxicity against human HOP92 cells assessed as growth inhibition at 10 uM after 48 hrs by SRB assay; conditions: HOP-92, 48 h, read-out: GI
[30] = Cytotoxicity against human SF295 cells assessed as growth inhibition at 10 uM after 48 hrs by SRB assay; conditions: SF-295, 48 h, read-out: GI
[31] = Cytotoxicity against human OVCAR5 cells assessed as growth inhibition at 10 uM after 48 hrs by SRB assay; conditions: OVCAR-5, 48 h, read-out: GI
[32] = tested on: K562; assay: Cytotoxicity against human K562 cells assessed as growth inhibition at 10 uM after 48 hrs by SRB assay; conditions: K562, 48 h, read-out: GI
[33] = Cytotoxicity against human SF539 cells assessed as growth inhibition at 10 uM after 48 hrs by SRB assay; conditions: SF-539, 48 h, read-out: GI
[34] = tested on: ACHN; assay: Cytotoxicity against human ACHN cells assessed as growth inhibition at 10 uM after 48 hrs by SRB assay; conditions: read-out: GI
[35] = Cytotoxicity against human SW620 cells assessed as growth inhibition at 10 uM after 48 hrs by SRB assay; conditions: SW-620, 48 h, read-out: GI
[36] = Cytotoxicity against human UACC257 cells assessed as growth inhibition at 10 uM after 48 hrs by SRB assay; conditions: UACC-257, 48 h, read-out: GI
[37] = tested on: NCI-H460; assay: Cytotoxicity against human NCI-H460 cells assessed as growth inhibition at 10 uM after 48 hrs by SRB assay; conditions: NCI-H460, 48 h, read-out: GI
[38] = tested on: SK-MEL-5; assay: Cytotoxicity against human SK-MEL-5 cells assessed as growth inhibition at 10 uM after 48 hrs by SRB assay; conditions: SK-MEL-5, 48 h, read-out: GI
[39] = Cytotoxicity against human SKOV3 cells assessed as growth inhibition at 10 uM after 48 hrs by SRB assay; conditions: SK-OV-3, 48 h, read-out: GI
[40] = tested on: MDA-MB-468; assay: Cytotoxicity against human MDA-MB-468 cells assessed as growth inhibition at 10 uM after 48 hrs by SRB assay; conditions: MDA-MB-468, 48 h, read-out: GI
[41] = tested on: SK-MEL-2; assay: Cytotoxicity against human SK-MEL-2 cells assessed as growth inhibition at 10 uM after 48 hrs by SRB assay; conditions: SK-MEL-2, 48 h, read-out: GI
[42] = Cytotoxicity against human NCI-H322 cells assessed as growth inhibition at 10 uM after 48 hrs by SRB assay; conditions: NCI-H322, 48 h, read-out: GI
[43] = Cytotoxicity against human DU145 cells assessed as growth inhibition at 10 uM after 48 hrs by SRB assay; conditions: DU-145, 48 h, read-out: GI
[44] = tested on: NCI-H226; assay: Cytotoxicity against human NCI-H226 cells assessed as growth inhibition at 10 uM after 48 hrs by SRB assay; conditions: NCI-H226, 48 h, read-out: GI
[45] = tested on: SR; assay: Cytotoxicity against human SR cells assessed as growth inhibition at 10 uM after 48 hrs by SRB assay; conditions: read-out: GI
[46] = Cytotoxicity against human HOP62 cells assessed as growth inhibition at 10 uM after 48 hrs by SRB assay; conditions: HOP-62, 48 h, read-out: GI
[47] = tested on: NCI-H23; assay: Cytotoxicity against human NCI-H23 cells assessed as growth inhibition at 10 uM after 48 hrs by SRB assay; conditions: NCI-H23, 48 h, read-out: GI
[48] = tested on: MCF7; assay: Cytotoxicity against human MCF7 cells assessed as growth inhibition at 10 uM after 48 hrs by SRB assay; conditions: MCF7, 48 h, read-out: GI
[49] = Cytotoxicity against human IGROV1 cells assessed as growth inhibition at 10 uM after 48 hrs by SRB assay; conditions: IGROV-1, 48 h, read-out: GI
[50] = Cytotoxicity against human OVCAR3 cells assessed as growth inhibition at 10 uM after 48 hrs by SRB assay; conditions: OVCAR-3, 48 h, read-out: GI

## COc1cc(NC(=O)CCSc2nc3ccc(C)cc3c(=O)n2-c2ccccc2)cc(OC)c1OC
[1]
  inhibition of growth at 10 µM: 29%
[2]
  inhibition of growth at 10 µM: 13%
[3]
  inhibition of growth at 10 µM: 43%
[4]
  inhibition of growth at 10 µM: 35%
[5]
  inhibition of growth at 10 µM: 50%
[6]
  inhibition of growth at 10 µM: 20%
[7]
  inhibition of growth at 10 µM: 29%
[8]
  inhibition of growth at 10 µM: 23%
[9]
  inhibition of growth at 10 µM: 21%
[10]
  inhibition of growth at 10 µM: 80%
[11]
  inhibition of growth at 10 µM: 19%
[12]
  inhibition of growth at 10 µM: 62%
[13]
  inhibition of growth at 10 µM: 53%
[14]
  inhibition of growth at 10 µM: 14%
[15]
  inhibition of growth at 10 µM: 45%
[16]
  inhibition of growth at 10 µM: 34%
[17]
  inhibition of growth at 10 µM: 12%
[18]
  inhibition of growth at 10 µM: 16%
[19]
  inhibition of growth at 10 µM: 16%
[20]
  inhibition of growth at 10 µM: 24%
[21]
  inhibition of growth at 10 µM: 27%
[22]
  inhibition of growth at 10 µM: 17%
[23]
  inhibition of growth at 10 µM: 17%
[24]
  inhibition of growth at 10 µM: 15%
[25]
  inhibition of growth at 10 µM: 36%
[26]
  inhibition of growth at 10 µM: 47%
[27]
  inhibition of growth at 10 µM: 26%
[28]
  inhibition of growth at 10 µM: 19%
[29]
  inhibition of growth at 10 µM: 40%
[30]
  inhibition of growth at 10 µM: 13%
[31]
  inhibition of growth at 10 µM: 12%
[32]
  inhibition of growth at 10 µM: 10%
[33]
  inhibition of growth at 10 µM: 17%
[34]
  inhibition of growth at 10 µM: 24%
[35]
  inhibition of growth at 10 µM: 13%

## COc1cc(NC(=O)CCSc2nc3ccccc3c(=O)n2-c2ccc(F)cc2)cc(OC)c1OC
[1]
  inhibition of growth at 10 µM: 40%
[2]
  inhibition of growth at 10 µM: 40%
[36]
  inhibition of growth at 10 µM: 15%
[37]
  inhibition of growth at 10 µM: 18%
[38]
  inhibition of growth at 10 µM: 11%
[39]
  inhibition of growth at 10 µM: 70%
[4]
  inhibition of growth at 10 µM: 67%
[5]
  inhibition of growth at 10 µM: 117%
[6]
  inhibition of growth at 10 µM: 42%
[7]
  inhibition of growth at 10 µM: 22%
[40]
  inhibition of growth at 10 µM: 21%
[8]
  inhibition of growth at 10 µM: 104%
[41]
  inhibition of growth at 10 µM: 47%
[42]
  inhibition of growth at 10 µM: 14%
[10]
  inhibition of growth at 10 µM: 68%
[11]
  inhibition of growth at 10 µM: 39%
[12]
  inhibition of growth at 10 µM: 12%
[13]
  inhibition of growth at 10 µM: 47%
[15]
  inhibition of growth at 10 µM: 22%
[43]
  inhibition of growth at 10 µM: 21%
[16]
  inhibition of growth at 10 µM: 34%
[17]
  inhibition of growth at 10 µM: 28%
[18]
  inhibition of growth at 10 µM: 61%
[19]
  inhibition of growth at 10 µM: 30%
[44]
  inhibition of growth at 10 µM: 38%
[45]
  inhibition of growth at 10 µM: 11%
[46]
  inhibition of growth at 10 µM: 40%
[20]
  inhibition of growth at 10 µM: 32%
[21]
  inhibition of growth at 10 µM: 17%
[22]
  inhibition of growth at 10 µM: 32%
[47]
  inhibition of growth at 10 µM: 21%
[23]
  inhibition of growth at 10 µM: 20%
[24]
  inhibition of growth at 10 µM: 28%
[25]
  inhibition of growth at 10 µM: 25%
[26]
  inhibition of growth at 10 µM: 23%
[27]
  inhibition of growth at 10 µM: 28%
[48]
  inhibition of growth at 10 µM: 22%
[49]
  inhibition of growth at 10 µM: 25%
[29]
  inhibition of growth at 10 µM: 103%
[30]
  inhibition of growth at 10 µM: 40%
[33]
  inhibition of growth at 10 µM: 34%
[34]
  inhibition of growth at 10 µM: 39%
[50]
  inhibition of growth at 10 µM: 18%
